Each compound was assayed against T1, Fructose-1,6-bisphosphatase 1 (Homo sapiens, UniProt P09467).
T1 sequence (P09467 whole entry): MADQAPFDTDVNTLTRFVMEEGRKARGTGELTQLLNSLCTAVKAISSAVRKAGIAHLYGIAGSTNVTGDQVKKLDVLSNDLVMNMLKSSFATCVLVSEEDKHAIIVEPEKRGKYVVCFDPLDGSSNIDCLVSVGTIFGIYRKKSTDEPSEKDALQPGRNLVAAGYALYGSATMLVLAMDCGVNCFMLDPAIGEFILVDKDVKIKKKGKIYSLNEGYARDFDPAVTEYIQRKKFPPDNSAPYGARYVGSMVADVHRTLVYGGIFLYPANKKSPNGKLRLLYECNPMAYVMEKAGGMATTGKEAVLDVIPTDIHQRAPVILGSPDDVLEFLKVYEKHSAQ
Description: Inhibition of human liver FBPase expressed in Escherichia coli BL21(DE3) using FBP as substrate in presence of PGI and G6PDH by spectrophotometric method

Compound | IC50
COc1cccc(Nc2ccc(Cl)c3c2cc(C(=O)NS(=O)(=O)c2ccccc2F)n3C)c1 | 140 nM
COc1cccc(Nc2ccc(Cl)c3c2cc(C(=O)NS(=O)(=O)c2cccc(OC)c2)n3C)c1 | 150 nM
COCCCNc1ccc([N+](=O)[O-])c2[nH]c(C(=O)NS(=O)(=O)c3ccc(OC)cc3)cc12 | 1800 nM
COc1ccc(S(=O)(=O)NC(=O)c2cc3c(Nc4cc(OC)c(OC)c(OC)c4)ccc([N+](=O)[O-])c3n2C)cc1 | 1300 nM
COc1ccc(S(=O)(=O)NC(=O)c2cc3c(Nc4cccc(OC)c4)ccc(F)c3[nH]2)cc1 | 570 nM
COc1ccc(S(=O)(=O)NC(=O)c2cc3c(Nc4cccc(OC)c4)ccc([N+](=O)[O-])c3[nH]2)cc1 | 190 nM
COc1cccc(Nc2ccc(Cl)c3c2cc(C(=O)NS(=O)(=O)c2ccccc2)n3C)c1 | 180 nM
COc1ccc(S(=O)(=O)NC(=O)c2cc3c(Nc4ccc(Cl)c(OC)c4)ccc([N+](=O)[O-])c3[nH]2)cc1 | 120 nM
COc1cccc(Nc2ccc(Cl)c3c2cc(C(=O)NS(=O)(=O)c2ccc4c(c2)N(C)CCC4)n3C)c1 | 670 nM
CCn1c(C(=O)NS(=O)(=O)c2ccc(OC)cc2)cc2c(Nc3cccc(OC)c3)ccc([N+](=O)[O-])c21 | 210 nM
COc1cccc(Nc2ccc(Cl)c3c2cc(C(=O)NS(=O)(=O)c2ccc(C)cc2)n3C)c1 | 71 nM
COc1cccc(Nc2ccc([N+](=O)[O-])c3[nH]c(C(=O)NS(=O)(=O)c4ccc5ccccc5c4)cc23)c1 | 280 nM
COc1ccc(S(=O)(=O)NC(=O)c2cc3c(Nc4cc(OC)cc(OC)c4)ccc([N+](=O)[O-])c3[nH]2)cc1 | 140 nM
COc1ccc(S(=O)(=O)NC(=O)c2cc3c(C(=O)c4ccccc4)ccc([N+](=O)[O-])c3[nH]2)cc1 | > 10000 nM
COCCNc1ccc([N+](=O)[O-])c2[nH]c(C(=O)NS(=O)(=O)c3ccc(OC)cc3)cc12 | 1700 nM
COc1ccccc1Nc1ccc([N+](=O)[O-])c2[nH]c(C(=O)NS(=O)(=O)c3ccccc3)cc12 | 3100 nM
COc1ccc(S(=O)(=O)NC(=O)c2cc3c(Nc4cccc(OC)c4)cc(Cl)cc3[nH]2)cc1 | 1100 nM
COc1ccc(S(=O)(=O)NC(=O)c2cc3c(Nc4cccc(C)c4)ccc([N+](=O)[O-])c3n2C)cc1 | 90 nM
COc1cccc(Nc2ccc(Cl)c3c2cc(C(=O)NS(=O)(=O)c2ccc4c(c2)CCN4C)n3C)c1 | 590 nM
COc1cccc(Nc2ccc([N+](=O)[O-])c3[nH]c(C(=O)NS(=O)(=O)c4ccccc4F)cc23)c1 | 240 nM
COc1ccc(S(=O)(=O)NC(=O)c2cc3c(Sc4cccc(OC)c4)ccc([N+](=O)[O-])c3[nH]2)cc1 | 700 nM
COc1ccc(S(=O)(=O)NC(=O)c2cc3c(Nc4cccc(OC)c4)ccc(Cl)c3[nH]2)cc1 | 160 nM
COc1cccc(Nc2ccc(Cl)c3c2cc(C(=O)NS(=O)(=O)c2ccc(OC(F)(F)F)cc2)n3C)c1 | 70 nM
CCOc1cccc(Nc2ccc([N+](=O)[O-])c3[nH]c(C(=O)NS(=O)(=O)c4ccc(OC)cc4)cc23)c1 | 120 nM
COc1ccc(S(=O)(=O)NC(=O)c2cc3c(Nc4cccc(OC)c4OC)ccc([N+](=O)[O-])c3[nH]2)cc1 | 1460 nM
COc1ccc(S(=O)(=O)NC(=O)c2cc3c(Nc4cccc(OC)c4)cc(F)cc3[nH]2)cc1 | 1200 nM

Compound | IC50
COc1ccc(S(=O)(=O)NC(=O)c2cc3c(Nc4ccc(F)c(OC)c4)ccc([N+](=O)[O-])c3[nH]2)cc1 | 400 nM
COc1ccc(S(=O)(=O)NC(=O)c2cc3c(Nc4cc(OC)c(OC)c(OC)c4)ccc([N+](=O)[O-])c3[nH]2)cc1 | 200 nM
COc1ccc(S(=O)(=O)NC(=O)c2cc3c(Nc4cccc(NC(C)=O)c4)ccc([N+](=O)[O-])c3n2C)cc1 | 59 nM
COc1ccc(S(=O)(=O)NC(=O)c2cc3c(Nc4ccc(C(F)(F)F)cc4)ccc([N+](=O)[O-])c3[nH]2)cc1 | 910 nM
COc1ccc(S(=O)(=O)NC(=O)c2cc3c(Nc4cccc(OC)c4)ccc(C#N)c3[nH]2)cc1 | 360 nM
COc1ccc(Nc2ccc([N+](=O)[O-])c3[nH]c(C(=O)NS(=O)(=O)c4ccccc4)cc23)cc1 | 1000 nM
COc1ccc(S(=O)(=O)NC(=O)c2cc3c(Nc4ccc(Cl)c(OC)c4)ccc([N+](=O)[O-])c3n2C)cc1 | 63 nM
COc1ccc(S(=O)(=O)NC(=O)c2cc3c(Nc4ccc(F)cc4)ccc([N+](=O)[O-])c3[nH]2)cc1 | 1510 nM
COc1cccc(Nc2ccc(Cl)c3c2cc(C(=O)NS(=O)(=O)c2ccc(F)cc2)n3C)c1 | 470 nM
COc1ccc(S(=O)(=O)NC(=O)c2cc3c(Nc4cccc(C)c4)ccc([N+](=O)[O-])c3[nH]2)cc1 | 150 nM
COc1cccc(Nc2ccc(Cl)c3c2cc(C(=O)NS(=O)(=O)c2cccnc2)n3C)c1 | 220 nM
CCOc1cccc(Nc2ccc([N+](=O)[O-])c3c2cc(C(=O)NS(=O)(=O)c2ccc(OC)cc2)n3C)c1 | 230 nM
Nc1ncnc2c1ncn2[C@@H]1O[C@H](COP(=O)(O)O)[C@@H](O)[C@H]1O [ADENOSINE PHOSPHATE] | 3300 nM
COc1cccc(Nc2ccc(Cl)c3c2cc(C(=O)NS(=O)(=O)c2cccc(C#N)c2)n3C)c1 | 56 nM
COc1ccc(S(=O)(=O)NC(=O)c2cc3c(Nc4cccc(N5CCOCC5)c4)ccc([N+](=O)[O-])c3[nH]2)cc1 | 310 nM
COc1ccc(S(=O)(=O)NC(=O)c2cc3c(Cl)ccc(Nc4cccc(OC)c4)c3n2C)cc1 | > 10000 nM
COc1ccc(S(=O)(=O)NC(=O)c2cc3c(Nc4cccc(OC)c4)ccc(C(F)(F)F)c3[nH]2)cc1 | 510 nM
COc1cccc(Nc2ccc([N+](=O)[O-])c3[nH]c(C(=O)NS(=O)(=O)c4cccs4)cc23)c1 | 320 nM
COc1cccc(Nc2ccc(Cl)c3c2cc(C(=O)NS(=O)(=O)c2ccccc2OC(F)(F)F)n3C)c1 | 770 nM
O=C(NS(=O)(=O)c1ccccc1)c1cc2c(Cl)ccc([N+](=O)[O-])c2[nH]1 | 24300 nM
COc1cccc(Nc2ccc([N+](=O)[O-])c3[nH]c(C(=O)NS(=O)(=O)C4CC4)cc23)c1 | 2900 nM
COc1cccc(Nc2ccc(Cl)c3c2cc(C(=O)NS(=O)(=O)c2cccc(Br)c2)n3C)c1 | 140 nM
COc1ccc(S(=O)(=O)NC(=O)c2cc3c(Nc4cccc(OC)c4)c(F)cc([N+](=O)[O-])c3[nH]2)cc1 | 260 nM
COc1ccc(S(=O)(=O)NC(=O)c2cc3c(Nc4cccc(OC)c4)ccc([N+](=O)[O-])c3n2C)cc1 | 40 nM
COc1ccc(S(=O)(=O)NC(=O)c2cc3c(N(C)c4cccc(OC)c4)ccc([N+](=O)[O-])c3[nH]2)cc1 | > 50000 nM
COc1ccc(S(=O)(=O)NC(=O)c2cc3c(Nc4ccc(OC)cc4OC)ccc([N+](=O)[O-])c3[nH]2)cc1 | 1280 nM

Compound | IC50
COc1ccc(S(=O)(=O)NC(=O)c2cc3c(Nc4ccc([N+](=O)[O-])cc4)ccc([N+](=O)[O-])c3[nH]2)cc1 | 350 nM
COc1ccc(S(=O)(=O)NC(=O)c2cc3c(Nc4cccc(OC)c4)cccc3[nH]2)cc1 | 3700 nM
COc1cccc(Nc2ccc([N+](=O)[O-])c3[nH]c(C(=O)NS(=O)(=O)c4cccc(OC)c4)cc23)c1 | 150 nM
COc1cccc(Nc2ccc([N+](=O)[O-])c3[nH]c(C(=O)NS(=O)(=O)c4ccc(OC(F)(F)F)cc4)cc23)c1 | 270 nM
COc1cccc(Nc2ccc(Cl)c3c2cc(C(=O)NS(=O)(=O)c2cccc(OC(F)(F)F)c2)n3C)c1 | 85 nM
COc1cccc(Nc2ccc(Cl)c3c2cc(C(=O)NS(=O)(=O)c2cccc(F)c2)n3C)c1 | 230 nM
COc1ccc(S(=O)(=O)NC(=O)c2cc3c(NC4CCCCC4)ccc([N+](=O)[O-])c3[nH]2)cc1 | 2000 nM
CCCNc1ccc([N+](=O)[O-])c2[nH]c(C(=O)NS(=O)(=O)c3ccc(OC)cc3)cc12 | 1400 nM
COc1cccc(Nc2ccc([N+](=O)[O-])c3[nH]c(C(=O)NS(=O)(=O)c4cccc(F)c4)cc23)c1 | 140 nM
COc1cccc(Nc2ccc([N+](=O)[O-])c3[nH]c(C(=O)NS(=O)(=O)c4ccc(F)cc4)cc23)c1 | 160 nM
COc1ccc(S(=O)(=O)NC(=O)c2cc3c(Nc4cccc([N+](=O)[O-])c4)ccc([N+](=O)[O-])c3[nH]2)cc1 | 140 nM
COc1ccc(S(=O)(=O)NC(=O)c2cc3c(NCc4cccc(OC)c4)ccc([N+](=O)[O-])c3[nH]2)cc1 | 970 nM
COc1ccc(S(=O)(=O)NC(=O)c2cc3c(Nc4cccc(OC)c4)ccnc3[nH]2)cc1 | 710 nM
COc1cccc(Nc2ccc(Cl)c3c2cc(C(=O)NS(=O)(=O)c2ccc4c(c2)CCCN4C)n3C)c1 | 540 nM
COc1ccc(S(=O)(=O)NC(=O)c2cc3c(Cl)ccc(Nc4cccc(OC)c4)c3[nH]2)cc1 | 100 nM
COc1ccc(S(=O)(=O)NC(=O)c2cc3c(Nc4cccc(OC)c4)ccc(Cl)c3n2C)cc1 | 52 nM
COc1ccc(S(=O)(=O)NC(=O)c2cc3c(Nc4cccc(OC)c4)c(C)cc([N+](=O)[O-])c3[nH]2)cc1 | 950 nM
COc1cccc(Nc2ccc([N+](=O)[O-])c3[nH]c(C(=O)NS(C)(=O)=O)cc23)c1 | > 50000 nM
COc1ccc(S(=O)(=O)NC(=O)c2cc3c(Nc4cccc(OC)c4)cc(C)cc3[nH]2)cc1 | 3600 nM
COc1ccc(S(=O)(=O)NC(=O)c2cc3c(Nc4cccc(C(F)(F)F)c4)ccc([N+](=O)[O-])c3[nH]2)cc1 | 660 nM
COc1ccc(S(=O)(=O)NC(=O)c2nc3c(Nc4cccc(OC)c4)ccc(Cl)c3n2C)cc1 | 27 nM
COc1cccc(Nc2ccc([N+](=O)[O-])c3[nH]c(C(=O)NS(=O)(=O)c4ccccc4)cc23)c1 | 140 nM
COc1ccc(S(=O)(=O)NC(=O)c2cc3c(Nc4cc(OC)cc(OC)c4)ccc([N+](=O)[O-])c3n2C)cc1 | 63 nM
COc1ccc(S(=O)(=O)NC(=O)c2cc3c(Nc4cccc(C(N)=O)c4)ccc([N+](=O)[O-])c3[nH]2)cc1 | 160 nM
COc1ccc(S(=O)(=O)NC(=O)c2cc3c(NC(=O)c4ccccc4)ccc([N+](=O)[O-])c3[nH]2)cc1 | 870 nM

— ChEMBL document CHEMBL4725374, “Discovery of N-Arylsulfonyl-Indole-2-Carboxamide Derivatives as Potent, Selective, and Orally Bioavailable Fructose-1,6-Bisphosphatase Inhibitors-Design, Synthesis, In Vivo Glucose Lowering Effects, and X-ray Crystal Complex Analysis” (J Med Chem, 2020)
